# How the values were obtained:
# [1] = target: S. aureus ATCC 29213 FabI (Staphylococcus aureus (strain MRSA252), UniProt Q6GI75); test: Staphylococcus aureus FabI enzyme inhibition assay; assay type: biochemical; settings: pH 6.5, 30 minutes at room temperature
# Human HelaM cells = test: Cytotoxicity MTT assay (TOX HELAM); assay type: cell-based; settings: 72 hours
# Method: Cytotoxicity of the compounds was evaluated using the MTT assay. Human HelaM cells grown in 96-well plates were exposed to serial dilutions of the tested compounds (final volume of 0.2 ml) and incubated for 72 hours at 37° C. and 5% CO2. Inhibitors are typically varied over the range of 25 to 0.8 μM. The final DMSO concentration in the assay is 0.5%. MTT (3-(4,5-Dimethylthiazol-2-yl)-2,5-diphenyltetrazolium bromide, a tetrazole) was added and reduced to purple formazan only in living cells. Solubilization of the formazan crystals was achieved by adding 100 μl 2-propanol. Cell viability was determined by measuring the absorbance of the reduced formazan, giving a purple color, at 540 nm and 690 nm. The absorbance measured at 690 nm was automatically subtracted from the absorbance at 540 nm, to eliminate the effects of non-specific absorption. The percent cytotoxicity achieved by the compounds was calculated according to standard methods. Cytotoxicity is reported as CC50, the concentration that causes a 50% reduction in cell viability.
# The results are depicted in the table D2 below (TOX HELAM).
# S. aureus = test: Antibacterial susceptibility testing: IC90 determination with 10% human serum (STA + 10% HS); assay type: cell-based, Staphylococcus aureus; settings: human serum at a final concentration of 10%
# Method: The following bacteria were used: Staphylococcus aureus ATCC 29213, methicillin-resistant Staphylococcus aureus (MRSA) ATCC 700788 and Escherichia coli ATCC 35218. The bacteria used in this study were grown overnight in flasks containing 100 ml Mueller-Hinton broth (Difco cat. nr. 0757-17) in sterile de-ionized water, with shaking, at 37° C. Stocks were store at −70° C. until use.
# Bacteria were incubated on a tryptic soy agar plate containing 5% sheep blood (Becton Dickinson cat. nr. 254053) for 18-24 hours at 35° C. in aerobic conditions (first passage). For the second passage, fresh Mueller-Hinton broth is inoculated with 5-10 colonies and grown overnight at 35° C. until turbidity (reaching log-phase) in aerobic conditions is reached. The bacterial suspension is then adjusted to 0.5 McFarland density and further diluted 1:100 in Mueller Hinton broth medium. This is used as inoculum.
# MIC assays were performed by the broth microdilution method in a 96-well format (flat-bottom microtitre plates) with a final volume of 0.1 ml Mueller Hinton broth containing two-fold serial dilutions of compounds and inoculated with 5×10^5 CFU/ml of bacteria (standard inoculum size according to CLSI guidelines). Inhibitors are typically varied over the range of 63 to 0.49 μM. The final DMSO concentration in the assay was 1.25% (maximum tolerable DMSO concentration=6%). In the assays where the effect of human serum on the activity of the compounds against S. aureus was tested, human serum was added at a final concentration of 10%. The plates were incubated at 35° C. for 16-20 hours. At the end of incubation the bacterial growth was quantified fluorometrically. For this, resazurin was added to all wells and the plates were re-incubated. The incubation time is dependent on the type of bacteria. A change in color from blue to pink indicated the growth of bacteria. The fluorescence was read in computer-controlled fluorometer (Fluoroskan Ascent FL, Labsystems) at an excitation wavelength 540 nm and an emission wavelength of 590 nm. The % growth inhibition achieved by the compounds was calculated according to standard methods. The IC90 (expressed in μg/ml) was defined as the 90% inhibitory concentration for bacterial growth. A panel of reference compounds were simultaneously tested for QC approval.
# The results are depicted in the table D2 below (STA+10% HS).
# [2] = test system: Methicillin-sensitive Staphylococcus aureus strain ATCC 29213; test: In vivo efficacy, peritonitis model of S. aureus infection; settings: IV, 20% CD + 2H2T, IP infection, inoculum 8.7 log10, female Swiss albino mice, 3 days post-infection
# Source text: The concept of studying the in vivo effect of an antibacterial compound by treating intraperitoneally infected mice was introduced in 1911 for optochin against pneumococci (Morgenroth and Levy, 1911). The popularity of the model comes from the ease of its use with short-duration experiments, reproducible infections and simple end-points.
# Methicillin-sensitive Staphylococcus aureus strain ATCC 29213 was used to infect female Swiss albino mice. A Brain Heart Infusion (BHI) broth bacterial culture was inoculated the day before infection, incubated at 37° C. overnight and diluted in fresh BHI broth to the desired concentration. I.p. injection of ˜5×10^8-5×10^9 colony forming units (CFU) was performed in either of the lateral lower quadrants of the abdomen. After inoculation, mice were kept in their cages under daily observation for development of signs of infection or death. For the treatment of mice, both the p.o. and i.v. routes were used and each mouse was treated individually by gavage or by i.v. injection. Both solutions (p.o. and i.v.) and suspensions (p.o.) were tested in this model. The parameter used for monitoring the course of infection and the effect of treatment was death or survival of the animals over 3 days post-infection. […]
compound,measurement,setting,value
"O=C1CCc2cc(/C=C/C(=O)N3C[C@@H]4CC(c5ccccc5)=C[C@@H]4C3)cnc2N1 (single isomer, unassigned) [compound 14]",FabI IC50,[1],0.40 µg/mL
same,TOX HELAM (222.125) CC50,Human HelaM cells,>9.683 µg/mL
same,STA + 10% HS (361.169) IC90,S. aureus,0.19 µg/mL
same,% Survival,[2]; QD 2.5 mpk,75%
same,% Survival,[2]; QD 5 mpk,100%

# From patent publication US9617262B2, “Antibacterial cyclopental[C]pyrrole substituted 3,4-dihydro-1H-[1,8]naphthyridinones” (Janssen Sciences Ireland UC, priority 2011, dated 2017)
